This note sets out measurements from ChEMBL document CHEMBL1781926, “Synthesis of 1-naphtylpiperazine derivatives as serotoninergic ligands and their evaluation as antiproliferative agents” (Eur J Med Chem, 2011).

In assay [1] the test system is PC-3. The experiment in a line: Cell cycle arrest in human PC3 cells assessed as accumulation at S phase at 2 uM after 48 hrs using propidium iodide staining by flow cytometry (reference value: 38.16 %). It counts as functional.
For assay [2], the system named is PC-3. The experiment in a line: Induction of apoptosis in human PC3 cells at 2 uM after 48 hrs using propidium iodide staining by flow cytometry (reference value: 0.84 %). It counts as functional.
For assay [3], the system named is PC-3. The experiment in a line: Cell cycle arrest in human PC3 cells assessed as accumulation at G1 phase at 2 uM after 72 hrs using propidium iodide staining by flow cytometry (reference value: 42.19 %). The class given is functional. (In general: Flow cytometry measures light scatter and fluorescence of single cells or particles in a stream.)
Assay [4] deals with PC-3. The experiment in a line: Inhibition of serotonin-induced MAPK phosphorylation in human PC3 cells at 2 uM after 48 hrs by Western blotting. It counts as cell-based. A general note: In western blotting, separated proteins are transferred to a membrane and probed.
Assay [5] has as its target RAC-alpha serine/threonine-protein kinase (Homo sapiens) (UniProt P31749). Kind of assay: Inhibition of serotonin-induced AKT phosphorylation in human PC3 cells at 2 uM after 48 hrs by Western blotting. Particulars: PC-3. The class given is cell-based.
For assay [6], the system named is PC-3. The experiment in a line: Induction of apoptosis human PC3 cells assessed as externalization of phosphatidylserine on the outer layer of plasma membrane at 1 uM after 24 to 48 hrs using Annexin-V-FITC staining by flow cytometry. It counts as functional, cell-based.
The test system of assay [7] is PC-3. The experiment in a line: Cell cycle arrest in human PC3 cells assessed as accumulation at G1 phase at 2 uM after 24 hrs using propidium iodide staining by flow cytometry (reference value: 46.97 %). It counts as functional.
The subject of assay [8] is PC-3. The experiment in a line: Cell cycle arrest in human PC3 cells assessed as accumulation at G2 phase at 2 uM after 24 hrs using propidium iodide staining by flow cytometry (reference value: 18.19 %). It counts as functional.
For assay [9], the system named is PC-3. Kind of assay: Cell cycle arrest in human PC3 cells assessed as accumulation at G2 phase at 2 uM after 72 hrs using propidium iodide staining by flow cytometry (reference value: 20.18 %). The class given is functional.
Assay [10] relates to PC-3. The experiment in a line: Cell cycle arrest in human PC3 cells assessed as accumulation at S phase at 2 uM after 72 hrs using propidium iodide staining by flow cytometry (reference value: 37.73 %). It counts as functional.
Assay [11] deals with PC-3. The experiment in a line: Induction of apoptosis in human PC3 cells at 2 uM after 72 hrs using propidium iodide staining by flow cytometry (reference value: 1.79 %). It counts as functional.
For assay [12], the system named is PC-3. The experiment in a line: Cell cycle arrest in human PC3 cells assessed as accumulation at S phase at 2 uM after 24 hrs using propidium iodide staining by flow cytometry (reference value: 34.84 %). The class given is functional.
Assay [13] concerns PC-3. The experiment in a line: Induction of apoptosis in human PC3 cells at 2 uM after 24 hrs using propidium iodide staining by flow cytometry (reference value: 1.27 %). The class given is functional.
Assay [14] deals with PC-3. Kind of assay: Cell cycle arrest in human PC3 cells assessed as accumulation at G1 phase at 2 uM after 48 hrs using propidium iodide staining by flow cytometry (reference value: 54.14 %). The class given is functional.
Assay [15] concerns PC-3. The experiment in a line: Cell cycle arrest in human PC3 cells assessed as accumulation at G2 phase at 2 uM after 48 hrs using propidium iodide staining by flow cytometry (reference value: 13.36 %). The class given is functional.

Activity calls are given as the source filed them. The calls are words filed in the database; no cut-off is given here.

Sequence of RAC-alpha serine/threonine-protein kinase (Homo sapiens) (P31749 whole entry): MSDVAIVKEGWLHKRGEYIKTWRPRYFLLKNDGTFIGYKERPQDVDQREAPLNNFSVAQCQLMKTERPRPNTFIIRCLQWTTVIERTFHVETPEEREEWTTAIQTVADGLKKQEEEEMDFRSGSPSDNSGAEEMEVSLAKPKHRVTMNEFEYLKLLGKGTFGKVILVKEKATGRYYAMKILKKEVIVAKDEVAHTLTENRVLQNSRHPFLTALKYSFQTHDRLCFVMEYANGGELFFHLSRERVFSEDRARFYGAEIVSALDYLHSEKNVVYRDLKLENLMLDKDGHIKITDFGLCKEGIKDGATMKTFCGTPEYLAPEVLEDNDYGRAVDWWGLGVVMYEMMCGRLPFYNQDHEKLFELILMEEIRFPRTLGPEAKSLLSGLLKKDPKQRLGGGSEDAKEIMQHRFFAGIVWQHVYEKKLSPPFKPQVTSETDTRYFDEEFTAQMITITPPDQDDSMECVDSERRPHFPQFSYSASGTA

As for `CC[C@@]1(O)C(=O)OCc2c1cc1n(c2=O)Cc2cc3c(CN(C)C)c(O)ccc3nc2-1` [TOPOTECAN], the Activity is reported as 61.76% in [1]; 16.32% in assay [2]; 0% in assay [3]; 37.23% in [7]; 28.86% in [8]; 36.31% in [9]. Besides, the Activity in assay [10] came to 63.69%; in assay [11] it was 8.14%; in [12], 33.91%; in [13], 5.43%; in assay [14], 19.17%; in assay [15], 19.07%. Moreover, the inhibition result in [4] was “inactive”. Moreover, in assay [5], the inhibition result was “Active”. Further, the result in assay [6] was Active.
